In patent US6470226B1 (priority 1997, dated 2002):

System: voltage dependent calcium channels
Format: cell-based, chick

Compound | effect on voltage dependent calcium channels (maximum current induced by depolarizing voltage steps) | reversibility of effect (washout)
COC(=O)C1=C(C)NC(C)=C([N+](=O)[O-])C1c1ccccc1C(F)(F)F (stereo not drawn) [Bay-k 8644] | stimulates L-type calcium channels | reversibly
O=C1NC(=O)C(c2ccccc2)(c2ccccc2)N1 [phenytoin] | no effect on calcium ion channels | –
N=C(N)NC(=O)c1nc(Cl)c(N)nc1N [amiloride] | no effect on calcium ion channels | –
w-conotoxin MVIIA | high affinity for N-type calcium channels | irreversible
